Test results published in US8017612B2, “Piperazine compound and use thereof as a HCV polymerase inhibitor” (priority 2006, dated 2011).
Structures can show the parent of a compound that is named as a salt.

Assays:
[1] = target: T1, HCV polymerase (NS5B) type 1a (Hepatitis C virus genotype 1a, UniProt P26664); assay: Assay of enzyme (HCV polymerase) inhibitory activity, type 1a enzyme; assay type: biochemical, HCV type 1a (cloned from the blood of patients); details: HCV polymerase inhibitory activity (IC50), 1a, type 1a enzyme 1.5 μg/ml, 25° C., 60 min
T1 construct: made in house; host or cells: Escherichia coli (by the 'similar method' of the 1b enzyme)
Method in brief: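 NS5B Δ47 C-term His6 (type 1a, 1.5 μg/ml); substrate RNA 5 μg/ml; ATP/GTP/CTP 50 μM, UTP 2 μM + [5,6-3H]UTP; Tris pH 7.5, MgCl2 5 mM; 25° C, 60 min. TCA/pyrophosphate stop, GF/B filter, scintillation. IC50 vs no-compound control.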

[2] = target: T2, HCV polymerase (NS5B) type 1b (Hepatitis C virus genotype 1b, UniProt P26663); assay: Assay of enzyme (HCV polymerase) inhibitory activity, type 1b enzyme; assay type: biochemical, HCV BK strain (type 1b); details: HCV polymerase inhibitory activity (IC50), 1b, type 1b enzyme 0.5 μg/ml, 25° C., 60 min
T2 construct: a region encoding NS5B (J Virol 1991 March, 65(3), 1105-13, 544 amino acids after deletion of 47 amino acids on the C-terminal); 6xHis (C); made in house; host or cells: Escherichia coli
Method in brief: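 Rxn: NS5B 1b (BK, ΔC47, His6) 0.5 μg/ml; substrate RNA 5 μg/ml; ATP/GTP/CTP 50 μM, UTP 2 μM + [5,6-3H]UTP; 20 mM Tris pH 7.5, 5 mM MgCl2, 50 mM NaCl, 1 mM EDTA/DTT. 25 °C, 60 min. Stop with TCA/pyrophosphate, filter, scintillation count; IC50 vs. untreated.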

SMILES: CC(=O)N1CCN(S(=O)(=O)c2ccc3c(c2)CCC3)[C@@H](C(=O)NCc2ccc(C(C)C)cc2)C1 [Example 204, (R)-4-acetyl-1-(indane-5-sulfonyl)-piperazine-2-carboxylic acid 4-isopropyl-benzylamide]
- IC50 [1]: 100 to 1000 nM
- IC50 [2]: 100 to 1000 nM

SMILES: CCCc1ccc(S(=O)(=O)N2CCN(C(C)=O)C[C@@H]2C(=O)NCc2ccc(C(C)C)cc2)cc1 [Example 205, (R)-4-acetyl-1-(4-propyl-benzenesulfonyl)-piperazine-2-carboxylic acid 4-isopropyl-benzylamide]
- IC50 [1]: < 100 nM
- IC50 [2]: < 100 nM

SMILES: CC(=O)N1CCN(S(=O)(=O)c2ccc(-c3ccccc3)cc2)[C@@H](C(=O)NCc2ccc(C(C)C)cc2)C1 [Example 206, (R)-4-acetyl-1-(biphenyl-4-sulfonyl)-piperazine-2-carboxylic acid 4-isopropyl-benzylamide]
- IC50 [1]: 100 to 1000 nM
- IC50 [2]: 100 to 1000 nM

SMILES: CC(=O)N1CCN(S(=O)(=O)c2ccc(OC(F)(F)F)cc2)[C@@H](C(=O)NCc2ccc(C(C)C)cc2)C1 [Example 207, (R)-4-acetyl-1-(4-trifluoromethoxy-benzenesulfonyl)-piperazine-2-carboxylic acid 4-isopropyl-benzylamide]
- IC50 [1]: < 100 nM
- IC50 [2]: < 100 nM

SMILES: CC(=O)N1CCN(S(=O)(=O)c2ccc(C(C)(C)C)cc2)[C@@H](C(=O)NCc2ccc(C(C)C)cc2)C1 [Example 208, (R)-4-acetyl-1-(4-tert-butyl-benzenesulfonyl)-piperazine-2-carboxylic acid 4-isopropyl-benzylamide]
- IC50 [1]: < 100 nM
- IC50 [2]: < 100 nM

SMILES: CN(C)c1ccc(CNC(=O)[C@H]2CNCCN2S(=O)(=O)c2ccc(C(F)(F)F)cc2)cc1 [Example 209, (R)-1-(4-trifluoromethyl-benzenesulfonyl)-piperazine-2-carboxylic acid 4-dimethylamino-benzylamide dihydrochloride]
- IC50 [1]: > 1000 nM
- IC50 [2]: > 1000 nM

SMILES: CC(C)c1ccc(CNC(=O)[C@H]2CN(C(=O)Nc3cccnc3)CCN2S(=O)(=O)c2ccc(C(F)(F)F)cc2)cc1 [Example 211, (R)-4-(4-trifluoromethyl-benzenesulfonyl)-piperazine-1,3-dicarboxylic acid 3-(4-isopropyl-benzylamide) 1-pyridin-3-ylamide]
- IC50 [1]: 100 to 1000 nM
- IC50 [2]: 100 to 1000 nM

SMILES: COC(=O)CCCCC(=O)N1CCN(S(=O)(=O)c2ccc(C(F)(F)F)cc2)[C@@H](C(=O)NCc2ccc(C(C)C)cc2)C1 [Example 212, 6-[(R)-3-(4-isopropyl-benzylcarbamoyl)-4-(4-trifluoromethyl-benzenesulfonyl)-piperazin-1-yl]-6-oxo-hexanoic acid methyl ester]
- IC50 [1]: 100 to 1000 nM
- IC50 [2]: < 100 nM

SMILES: CC(C)c1ccc(CNC(=O)[C@H]2CN(C(=O)CCCCC(=O)O)CCN2S(=O)(=O)c2ccc(C(F)(F)F)cc2)cc1 [Example 213, 6-[(R)-3-(4-isopropyl-benzylcarbamoyl)-4-(4-trifluoromethyl-benzenesulfonyl)-piperazin-1-yl]-6-oxo-hexanoic acid]
- IC50 [1]: 100 to 1000 nM
- IC50 [2]: 100 to 1000 nM

SMILES: COc1ccc(S(=O)(=O)N2CCN(C(C)=O)C[C@@H]2C(=O)NCc2ccc(C(C)C)cc2)cc1 [Example 214, (R)-4-acetyl-1-(4-methoxy-benzenesulfonyl)-piperazine-2-carboxylic acid 4-isopropyl-benzylamide]
- IC50 [1]: 100 to 1000 nM
- IC50 [2]: 100 to 1000 nM

SMILES: COc1ccc(S(=O)(=O)N2CCN(C(C)=O)C[C@@H]2C(=O)NCc2ccc(C(C)C)cc2)cc1C(C)C [Example 215, (R)-4-acetyl-1-(3-isopropyl-4-methoxy-benzenesulfonyl)-piperazine-2-carboxylic acid 4-isopropyl-benzylamide]
- IC50 [1]: 100 to 1000 nM
- IC50 [2]: < 100 nM

SMILES: COc1ccc(S(=O)(=O)N2CCN(C(C)=O)C[C@@H]2C(=O)NCc2ccc(C(C)C)cc2)cc1Cl [Example 216, (R)-4-acetyl-1-(3-chloro-4-methoxy-benzenesulfonyl)-piperazine-2-carboxylic acid 4-isopropyl-benzylamide]
- IC50 [1]: 100 to 1000 nM
- IC50 [2]: 100 to 1000 nM

SMILES: COC(=O)Cc1cc(S(=O)(=O)N2CCN(C(C)=O)C[C@@H]2C(=O)NCc2ccc(C(C)C)cc2)ccc1OC [Example 217, {5-[(R)-4-acetyl-2-(4-isopropyl-benzylcarbamoyl)-piperazine-1-sulfonyl]-2-methoxy-phenyl}-acetic acid methyl ester]
- IC50 [1]: > 1000 nM
- IC50 [2]: > 1000 nM

SMILES: COC(=O)CCc1cc(S(=O)(=O)N2CCN(C(C)=O)C[C@@H]2C(=O)NCc2ccc(C(C)C)cc2)ccc1OC [Example 218, 3-{5-[(R)-4-acetyl-2-(4-isopropyl-benzylcarbamoyl)-piperazine-1-sulfonyl]-2-methoxy-phenyl}-propionic acid methyl ester]
- IC50 [1]: 100 to 1000 nM
- IC50 [2]: 100 to 1000 nM

SMILES: CC(C)c1ccc(CNC(=O)[C@H]2CN(C(=O)Cn3ccnc3)CCN2S(=O)(=O)c2ccc(C(F)(F)F)cc2)cc1 [Example 219, (R)-4-(2-imidazol-1-yl-acetyl)-1-(4-trifluoromethyl-benzenesulfonyl)-piperazine-2-carboxylic acid 4-isopropyl-benzylamide]
- IC50 [1]: < 100 nM
- IC50 [2]: < 100 nM

SMILES: CC(C)c1ccc(CNC(=O)[C@H]2CN(C(=O)Cn3ccnn3)CCN2S(=O)(=O)c2ccc(C(F)(F)F)cc2)cc1 [Example 220, (R)-4-(2-[1,2,3]triazol-1-yl-acetyl)-1-(4-trifluoromethyl-benzenesulfonyl)-piperazine-2-carboxylic acid 4-isopropyl-benzylamide]
- IC50 [1]: < 100 nM
- IC50 [2]: < 100 nM

SMILES: COc1ccc(S(=O)(=O)N2CCN(C(C)=O)C[C@@H]2C(=O)NCc2ccc(C(C)C)cc2)cc1CC(=O)O [Example 221, {5-[(R)-4-acetyl-2-(4-isopropyl-benzylcarbamoyl)-piperazine-1-sulfonyl]-2-methoxy-phenyl}-acetic acid]
- IC50 [1]: > 1000 nM
- IC50 [2]: > 1000 nM

SMILES: COc1ccc(S(=O)(=O)N2CCN(C(C)=O)C[C@@H]2C(=O)NCc2ccc(C(C)C)cc2)cc1CCC(=O)O [Example 222, 3-{5-[(R)-4-acetyl-2-(4-isopropyl-benzylcarbamoyl)-piperazine-1-sulfonyl]-2-methoxy-phenyl}-propionic acid]
- IC50 [1]: 100 to 1000 nM
- IC50 [2]: 100 to 1000 nM

SMILES: COC(=O)C(C)(C)c1ccc(CNC(=O)[C@H]2CN(C(C)=O)CCN2S(=O)(=O)c2ccc(C(C)C)cc2)cc1 [Example 223, 2-[4-({[(R)-4-acetyl-1-(4-isopropyl-benzenesulfonyl)-piperazine-2-carbonyl]-amino}-methyl)-phenyl]-2-methyl-propionic acid methyl ester]
- IC50 [1]: 100 to 1000 nM
- IC50 [2]: 100 to 1000 nM

SMILES: CC(=O)N1CCN(S(=O)(=O)c2ccc(C(C)C)cc2)[C@@H](C(=O)NCc2ccc(CCO)cc2)C1 [Example 224, (R)-4-acetyl-1-(4-isopropyl-benzenesulfonyl)-piperazine-2-carboxylic acid 4-(2-hydroxy-ethyl)-benzylamide]
- IC50 [1]: > 1000 nM
- IC50 [2]: > 1000 nM

SMILES: CC(C)c1ccc(CNC(=O)[C@H]2CN(C(=O)CN)CCN2S(=O)(=O)c2ccc(C(F)(F)F)cc2)cc1 [Example 225, (R)-4-(2-amino-acetyl)-1-(4-trifluoromethyl-benzenesulfonyl)-piperazine-2-carboxylic acid 4-isopropyl-benzylamide hydrochloride]
- IC50 [1]: 100 to 1000 nM
- IC50 [2]: 100 to 1000 nM

SMILES: CC(=O)N1CCN(S(=O)(=O)c2ccc(C(C)C)cc2)[C@@H](C(=O)NCc2ccc(CO)cc2)C1 [Example 226, (R)-4-acetyl-1-(4-isopropyl-benzenesulfonyl)-piperazine-2-carboxylic acid 4-hydroxymethyl-benzylamide]
- IC50 [1]: > 1000 nM
- IC50 [2]: > 1000 nM

SMILES: CSc1ccc(CNC(=O)[C@H]2CN(C(C)=O)CCN2S(=O)(=O)c2ccc(C(C)C)cc2)cc1 [Example 227, (R)-4-acetyl-1-(4-isopropyl-benzenesulfonyl)-piperazine-2-carboxylic acid 4-methylsulfanyl-benzylamide]
- IC50 [1]: 100 to 1000 nM
- IC50 [2]: 100 to 1000 nM

SMILES: CC(C)c1ccc(CNC(=O)[C@H]2CN(C(=O)Cn3cccn3)CCN2S(=O)(=O)c2ccc(C(F)(F)F)cc2)cc1 [Example 228, (R)-4-(2-pyrazol-1-yl-acetyl)-1-(4-trifluoromethyl-benzenesulfonyl)-piperazine-2-carboxylic acid 4-isopropyl-benzylamide]
- IC50 [1]: 100 to 1000 nM
- IC50 [2]: 100 to 1000 nM

SMILES: CC(C)c1ccc(CNC(=O)[C@H]2CN(C(=O)Cn3cncn3)CCN2S(=O)(=O)c2ccc(C(F)(F)F)cc2)cc1 [Example 229, (R)-4-(2-[1,2,4]triazol-1-yl-acetyl)-1-(4-trifluoromethyl-benzenesulfonyl)-piperazine-2-carboxylic acid 4-isopropyl-benzylamide]
- IC50 [1]: < 100 nM
- IC50 [2]: < 100 nM

SMILES: CC(C)c1ccc(CNC(=O)[C@H]2CN(C(=O)Cn3cnnc3)CCN2S(=O)(=O)c2ccc(C(F)(F)F)cc2)cc1 [Example 230, (R)-4-(2-[1,2,4]triazol-4-yl-acetyl)-1-(4-trifluoromethyl-benzenesulfonyl)-piperazine-2-carboxylic acid 4-isopropyl-benzylamide]
- IC50 [1]: < 100 nM
- IC50 [2]: < 100 nM
